Results published in patent US5474988A, “5-phenylpyrrolo-1,4-benzoxazine and 5-phenylpyrrolo-1,4-benzothiazine compounds, process and intermediates for their production and pharmaceutical compositions containing them” (Kali-Chemie Pharma GmbH, priority 1993, dated 1995).

Experiments:
5-lipoxygenase = assay: inhibition of 5-lipoxygenase activity in polymorphonuclear rat leucocytes (LTB4 formation); type: cell-based; details: 10^-5 mol/l; 22° C.
Description: 4. In vitro determination of 5-lipoxygenase inhibition. 4a. In vitro determination of inhibition of 5-lipoxygenase activity in polymorphonuclear rat leucocytes. Arachidonic acid contained in cell membranes is released after activiation of the polymorphonuclear leucocytes (=PMN). During the course of this, under the action of the enzyme 5-lipoxygenase (=5-LO) arachidonic acid metabolites are synthesized which can be converted to leucotriene B4 (=LTB4) by LTA4 hydrolase. LTB4 is a principal metabolite of the arachidonic acid metabolism taking place on activation of the enzyme 5-LO by the inflammatory stimulus in the cell membrane. In in vitro systems, this metabolite is secreted from PMNs. […] To accomplish this, the content of LTB4 in a culture medium of rat peritoneal PMNs was determined after stimulation by calcimycin (=calcium-ionophore A23187) such as described by […] et al., Can. J. Physiol. Pharmacol. 67 (1989), 17. A cell suspension containing peritoneal PMNs of male Sprague-Dawley rats (body weight 200 to 250 g) was obtained in a known manner as follows: 6 ml of a solution containing 27.9 g/l of sodium thioglycolate were injected i.p. into the animals in order to induce the PMN invasion due to this inflammatory stimulus. After 22 hours, the animals were sacrificed by means of lethal ether anaesthesia. 20 ml of a Hank's salt solution (=Hank's Balanced Salt Solution=HBSS), but without Ca^++ and Mg^++ ions and with 0.2% by weight of sodium citrate, were then injected into the abdominal cavity. The suspension of accumulated cells was removed from the abdominal cavity and the cells were separated by centrifugation (10 minutes at 400×g). The cells were purified by repeated centrifugation in the presence of Ficoll-Paque®, (=metrizoic acid preparation, […], manufacturer Pharmacia), then washed twice with HBSS containing Ca^++ and Mg^++ ions and resuspended in HBSS containing Ca^ ++ and Mg^++ ions and buffered with 10 mM HEPES (=hydroxyethylpiperazinoethanesulfonic acid). In order to carry out the tests, samples of 0.7 ml of the PMN suspension (=0.5×10^6 cells) in each case were incubated for 15 minutes at 22° C. in plastic tubes containing 10 μM of the test substance in dimethylformamide or, as a control experiment, only containing dimethylformamide. The LTB4 synthesis was initiated in the samples by addition of calcimycin (final concentration 5 μm), and the samples were incubated for 10 minutes at 22° C. Only solvent was added to blank control samples. After 10 minutes, the reaction was terminated by addition of 0.3 ml of cold methanol. The samples were kept for 1 hour at 4° C. and then centrifuged (5 minutes at 10,000×g). The supernatant liquid was investigated to determine its LTB4 content by means of reverse phase high-pressure liquid chromatography (=reverse phase HPLC). […] The LTB4 was identified by comparison with authentic standard solutions eluting at the same time and determined at a wavelength of 270 nm. The LTB4 contents are determined from comparison with calibrated standard solutions, and from this the inhibitory activity of the test substances was calculated in % inhibition of the LTB4 synthesis in comparison with the control samples containing no test substance.

[1] = test system: P.A.F.-induced aggregation of blood platelets; assay: anti-P.A.F. action in vitro (P.A.F.-induced platelet aggregation); type: cell-based; details: Oryctolagus cuniculus, 10^-5 mole/liter, read-out: Anti-P.A.F. activity in vitro, % inhibition of the P.A.F.-induced aggregation of blood platelets from rabbit blood
Description: 3. Determination of the anti-P.A.F. action in vitro.
P.A.F. (=Platelet Activating Factor=Platelet Aggregation Factor) is a phospholipid mediator which has a multiplicity of actions. The activation of blood platelet aggregation results in the induction of long-lasting bronchoconstrictions and hyperreactivity of the respiratory passages.
In this test, the effect of the test substances on platelet aggregation induced by addition of P.A.F. in a platelet suspension obtained from rabbit blood was investigated according to the method described by Mikashima et al. (Jap. J. Pharmacol. 44 (1987) 387-391).
A suspension of platelets obtained from rabbit blood was used which contains 4×10^9 platelets/ml in a modified Tyrode buffer solution (=Tyrode solution with the addition of 1.3 mM/l of CaCl2 and 2.5 g/l of gelatine) adjusted to pH 7.4. Tyrode solution is an aqueous solution containing, per liter, 136.9 mmole of NaCl, 2.68 mmole of KCl, 2.31 mmole of CaCl2, 1.0 mmole of MgCl2, 11.9 mmole of NaHCO3, 1.45 mmole of NaH2 PO4 and 5.55 mmole of glucose. The platelets were concentrated from 10 ml blood samples of three rabbits (New Zealand hybrids, body weight 3-4 kg) in each case. To accomplish this, the blood samples were treated with ethylenediaminetetraacetic acid and washed according to the method of Artley et al. (Brit. J. Haematol. 19 (1970), 7-17). A platelet-rich plasma was first separated by centrifugation (20 minutes at 400×g). The platelets were separated from the plasma by repeated centrifugation for 15 minutes at 1400×g.After the centrifugation, the blood platelets remaining in the sediment were resuspended in a Tyrode buffer solution (but without calcium). 0.4 mmole of lysine acetylsalicylate was then added, and the blood platelets were sedimented again after 15 minutes. The sediment was resuspended in the aforementioned modified Tyrode buffer solution, and the number of platelets in the suspension obtained was adjusted to the desired content.
A 40×10^-9 molar P.A.F. solution was employed as a reagent. This solution was prepared from a 1.8×10^-3 molar stock solution in chloroform. To do this, a 10 μl sample of the stock solution was evaporated to dryness and dissolved again in 180 μl of the modified Tyrode buffer solution, to which 0.25% of lipid-free bovine serum albumin had been added. 10^-5 molar working solutions were then prepared from this and stored frozen. Samples of these solutions were appropriately diluted for tests.
In order to carry out the test, 50 μl of the blood platelet suspension and 10 μl of a 40×10^-5 molar solution of the compound to be investigated were added to […] of the modified Tyrode buffer solution with stirring (1000 rpm) in an aggregation tube provided with a small magnetic stirrer. This corresponded to a final test substance concentration of 10^-5 mole/l. After a preincubation time of 90 seconds, 10 μl of the P.A.F. preparation were added. For 4-5 minutes, the aggregation occurring in the aggregation tube was measured by means of a computerized aggregometer.
The aggregation occurring in the test tubes containing only the platelet suspension is rated as 0%. The aggregation occurring in the test tubes containing platelet suspension and P.A.F. preparation, in which a P.A.F.-induced increase in platelet aggregation takes place, is rated as 100%. The aggregation still occurring after addition of the test substances is measured, and from this the inhibition of the P.A.F.-inducedincrease in aggregation which takes place is calculated in %.

Cc1ccc(N2CCN(CCCC3Cn4c(-c5ccc(O)cc5)c(C)c5cccc(c54)O3)CC2)nc1 (stereo not drawn) [Example 55]
In vitro inhibitory activity on LTB4 formation in rat PMNs stimulated by calcium ionophore A23187 (5-lipoxygenase): 63%

COc1ccc(-c2c(C)c3cccc4c3n2CC(CCC(=O)N2CCN(c3cc(C)ccn3)CC2)O4)cc1 (stereo not drawn) [Example 6, 2,3-Dihydro-5-(4-methoxyphenyl)-6-methyl-2-[3-(4-(4-methylpyridin-2-yl)piperazin-1-yl)-3-oxopropyl]pyrrolo[1,2,3-de]-1,4-benzoxazine]
inhibition at 10 µM [1]: 100%

Cc1cccnc1N1CCN(C(=O)CCC2Cn3c(-c4ccc(O)cc4)c(C)c4cccc(c43)O2)CC1 (stereo not drawn) [Example 37]
In vitro inhibitory activity on LTB4 formation in rat PMNs stimulated by calcium ionophore A23187 (5-lipoxygenase): 100% | inhibition at 10 µM [1]: 48%

Cc1cccc(N2CCN(C(=O)CCC3Cn4c(-c5ccc(O)cc5)c(C)c5cccc(c54)O3)CC2)n1 (stereo not drawn) [Example 57]
In vitro inhibitory activity on LTB4 formation in rat PMNs stimulated by calcium ionophore A23187 (5-lipoxygenase): 85%

COc1ccc(-c2c(C)c3cccc4c3n2CC(CCN2CCN(c3cc(C)ccn3)CC2)O4)cc1O (stereo not drawn) [Example 52]
In vitro inhibitory activity on LTB4 formation in rat PMNs stimulated by calcium ionophore A23187 (5-lipoxygenase): 53%

COc1ccc(-c2c(C)c3c(F)ccc4c3n2CC(CCN2CCN(c3cc(C)ccn3)CC2)O4)cc1 (stereo not drawn) [Example 51]
inhibition at 10 µM [1]: 65%

Cc1c(-c2ccc(O)cc2)n2c3c(cccc13)OC(CCCN1CCN(c3ccccn3)CC1)C2 (stereo not drawn) [Example 56]
In vitro inhibitory activity on LTB4 formation in rat PMNs stimulated by calcium ionophore A23187 (5-lipoxygenase): 76%

COc1ccc(-c2c(C)c3cccc4c3n2CC(CCN2CCN(c3cc(C)ccn3)CC2)O4)cc1 (stereo not drawn) [Example 1, 2,3-dihydro-5-(4-methoxyphenyl)-6-methyl-2-[2-(4-(4-methylpyridin-2-yl)piperazin-1-yl)ethyl]pyrrolo[1,2,3-de]-1,4-benzoxazine]
inhibition at 10 µM [1]: 80%

Cc1ccnc(N2CCN(CC3Cn4c(-c5ccc(O)cc5)c(C)c5cccc(c54)O3)CC2)c1 (stereo not drawn) [Example 14]
In vitro inhibitory activity on LTB4 formation in rat PMNs stimulated by calcium ionophore A23187 (5-lipoxygenase): 90% | inhibition at 10 µM [1]: 100%

Cc1ccnc(N2CCN(CCC3Cn4c(-c5ccc(O)cc5)c(C)c5cccc(c54)O3)CC2)c1 (stereo not drawn) [Example 2, 2,3-Dihydro-5-(4-hydroxyphenyl)-6-methyl-2-[2-(4-(4-methylpyridin-2-yl)piperazin-1-yl)ethyl]pyrrolo[1,2,3-de]-1,4-benzoxazine]
In vitro inhibitory activity on LTB4 formation in rat PMNs stimulated by calcium ionophore A23187 (5-lipoxygenase): 89% | inhibition at 10 µM [1]: 97%

Cc1cccc(N2CCN(CCCC3Cn4c(-c5ccc(O)cc5)c(C)c5cccc(c54)O3)CC2)n1 (stereo not drawn) [Example 58]
In vitro inhibitory activity on LTB4 formation in rat PMNs stimulated by calcium ionophore A23187 (5-lipoxygenase): 54%

Cc1ccnc(N2CCN(CCC3Cn4c(-c5cc(C)c(O)c(C)c5)c(C)c5c(Cl)ccc(c54)O3)CC2)c1 (stereo not drawn) [Example 48]
inhibition at 10 µM [1]: 69%

Cc1ccnc(N2CCN(CCC3Cn4c(-c5ccc(O)cc5)c(C)c5c(C)cc(C)c(c54)O3)CC2)c1 (stereo not drawn) [Example 70]
In vitro inhibitory activity on LTB4 formation in rat PMNs stimulated by calcium ionophore A23187 (5-lipoxygenase): 68% | inhibition at 10 µM [1]: 93%

COc1ccc2c3c1c(C)c(-c1ccc(O)cc1)n3CC(CCC(=O)N1CCN(c3cc(C)ccn3)CC1)O2 (stereo not drawn) [Example 68]
In vitro inhibitory activity on LTB4 formation in rat PMNs stimulated by calcium ionophore A23187 (5-lipoxygenase): 90% | inhibition at 10 µM [1]: 96%

Cc1c(-c2ccc(O)cc2)n2c3c(cccc13)OC(CCN1CCN(c3ccc(F)cc3)CC1)C2 (stereo not drawn) [Example 24]
In vitro inhibitory activity on LTB4 formation in rat PMNs stimulated by calcium ionophore A23187 (5-lipoxygenase): 73%

Cc1ccnc(N2CCN(CCCCC3Cn4c(-c5cc(C)c(O)c(C)c5)c(C)c5cccc(c54)S3)CC2)c1 (stereo not drawn) [Example 63]
inhibition at 10 µM [1]: 80%
